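Assay format: 96-well plates, 48-hour exposure. At the GI50, growth is halved.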 Activity calls are given as the source filed them. No stated cut-off is given here; in the data, active = GI50 up to about 1.1 µM and inactive = higher.
Assays:
Test in all cases: growth of human tumour cells (NCI), 48 h
SK-MEL-2 = test system: SK-MEL-2
Malme-3M = test system: Malme-3M
M14 = test system: M14
SK-MEL-5 = test system: SK-MEL-5
KM12 = test system: KM12
UACC-62 = test system: UACC-62
OVCAR-4 = test system: OVCAR-4
HCC 2998 = test system: HCC 2998
CCRF-CEM = test system: CCRF-CEM
SW-620 = test system: SW-620
OVCAR-8 = test system: OVCAR-8
HOP-62 = test system: HOP-62
SR = test system: SR
HCT-15 = test system: HCT-15
SF-295 = test system: SF-295
K562 = test system: K562
TK-10 = test system: TK-10
NCI-H460 = test system: NCI-H460
ACHN = test system: ACHN
SNB-75 = test system: SNB-75

## CCOc1ccccc1NC(=O)CCc1nnc(S)[nH]1
SK-MEL-2
  GI50: > 100 µM (inactive)
Malme-3M
  GI50: > 100 µM (inactive)
M14
  GI50: > 100 µM (inactive)
SK-MEL-5
  GI50: > 100 µM (inactive)
KM12
  GI50: > 100 µM (inactive)
UACC-62
  GI50: > 100 µM (inactive)
OVCAR-4
  GI50: > 100 µM (inactive)
HCC 2998
  GI50: > 100 µM (inactive)
CCRF-CEM
  GI50: > 100 µM (inactive)
SW-620
  GI50: > 100 µM (inactive)
OVCAR-8
  GI50: > 100 µM (inactive)
HOP-62
  GI50: > 100 µM (inactive)
SR
  GI50: > 100 µM (inactive)
HCT-15
  GI50: > 100 µM
SF-295
  GI50: > 100 µM (inactive)
K562
  GI50: > 100 µM (inactive)
TK-10
  GI50: > 100 µM (inactive)
NCI-H460
  GI50: > 100 µM (inactive)
ACHN
  GI50: > 100 µM (inactive)

## CC(CC[C@@]1(C)C(=O)CCC2O[C@]21C)[C@H]1C[C@@H](c2ccoc2)OC1=O (stereo partly drawn)
SK-MEL-2
  GI50: > 100 µM (inactive)
Malme-3M
  GI50: 31.5 µM (inactive)
M14
  GI50: 72.9 µM (inactive)
SK-MEL-5
  GI50: > 100 µM (inactive)
KM12
  GI50: > 100 µM (inactive)
UACC-62
  GI50: 95.9 µM (inactive)
OVCAR-4
  GI50: 20.6 µM (inactive)
HCC 2998
  GI50: > 100 µM (inactive)
CCRF-CEM
  GI50: 19.6 µM (inactive)
SW-620
  GI50: 31.9 µM (inactive)
HOP-62
  GI50: > 100 µM (inactive)
SR
  GI50: 97.9 µM (inactive)
HCT-15
  GI50: 35.7 µM
SF-295
  GI50: > 100 µM (inactive)
K562
  GI50: 22.3 µM (inactive)
TK-10
  GI50: 35.8 µM (inactive)
NCI-H460
  GI50: > 100 µM (inactive)
ACHN
  GI50: 22.1 µM (inactive)

## COC(=O)C1CC2CC1C1C2SC(F)(F)C1(F)F (stereo not drawn)
SK-MEL-2
  GI50: > 100 µM (inactive)
Malme-3M
  GI50: > 100 µM (inactive)
M14
  GI50: > 100 µM (inactive)
SK-MEL-5
  GI50: > 100 µM (inactive)
KM12
  GI50: > 100 µM (inactive)
UACC-62
  GI50: > 100 µM (inactive)
OVCAR-4
  GI50: > 100 µM (inactive)
HCC 2998
  GI50: > 100 µM (inactive)
SW-620
  GI50: > 100 µM (inactive)
OVCAR-8
  GI50: > 100 µM (inactive)
HOP-62
  GI50: > 100 µM (inactive)
SNB-75
  GI50: > 100 µM (inactive)
SR
  GI50: > 100 µM (inactive)
HCT-15
  GI50: > 100 µM
SF-295
  GI50: > 100 µM (inactive)
TK-10
  GI50: > 100 µM (inactive)
NCI-H460
  GI50: > 100 µM (inactive)
ACHN
  GI50: > 100 µM (inactive)

## CCOC(=O)[N-]c1ccc(S(=O)(=O)[O+](C)CCl)cc1.CCOC(=O)[N-]c1ccc(S(=O)(=O)[O+](C)CCl)cc1.NC(=O)N=O.NC(=O)OCCCl
SK-MEL-2
  GI50: > 100 µM (inactive)
Malme-3M
  GI50: > 100 µM (inactive)
M14
  GI50: > 100 µM (inactive)
KM12
  GI50: > 100 µM (inactive)
UACC-62
  GI50: > 100 µM (inactive)
HCC 2998
  GI50: > 100 µM (inactive)
CCRF-CEM
  GI50: > 100 µM (inactive)
SW-620
  GI50: > 100 µM (inactive)
OVCAR-8
  GI50: > 100 µM (inactive)
HOP-62
  GI50: > 100 µM (inactive)
SR
  GI50: > 100 µM (inactive)
HCT-15
  GI50: > 100 µM
SF-295
  GI50: > 100 µM (inactive)
K562
  GI50: > 100 µM (inactive)
TK-10
  GI50: > 100 µM (inactive)
NCI-H460
  GI50: > 100 µM (inactive)

## CC(=O)c1ccc(NC(=O)/C(=N\NC(N)=O)C(C#N)CC(C)(C)C=O)cc1 (stereo not drawn)
SK-MEL-2
  GI50: > 100 µM (inactive)
M14
  GI50: > 100 µM (inactive)
SK-MEL-5
  GI50: > 100 µM (inactive)
KM12
  GI50: > 100 µM (inactive)
UACC-62
  GI50: > 100 µM (inactive)
OVCAR-4
  GI50: > 100 µM (inactive)
HCC 2998
  GI50: > 100 µM (inactive)
CCRF-CEM
  GI50: > 100 µM (inactive)
SW-620
  GI50: > 100 µM (inactive)
OVCAR-8
  GI50: > 100 µM (inactive)
HOP-62
  GI50: > 100 µM (inactive)
SNB-75
  GI50: > 100 µM (inactive)
SR
  GI50: > 100 µM (inactive)
HCT-15
  GI50: > 100 µM
SF-295
  GI50: > 100 µM (inactive)
K562
  GI50: > 100 µM (inactive)
TK-10
  GI50: > 100 µM (inactive)
NCI-H460
  GI50: > 100 µM (inactive)
ACHN
  GI50: > 100 µM (inactive)

## O=C1Sc2ccccc2C(=O)N2CCSC12 (stereo not drawn)
SK-MEL-2
  GI50: > 100 µM (inactive)
Malme-3M
  GI50: > 100 µM (inactive)
M14
  GI50: > 100 µM (inactive)
SK-MEL-5
  GI50: > 100 µM (inactive)
KM12
  GI50: > 100 µM (inactive)
UACC-62
  GI50: > 100 µM (inactive)
HCC 2998
  GI50: > 100 µM (inactive)
CCRF-CEM
  GI50: > 100 µM (inactive)
SW-620
  GI50: > 100 µM (inactive)
OVCAR-8
  GI50: > 100 µM (inactive)
HOP-62
  GI50: > 100 µM (inactive)
SR
  GI50: > 100 µM (inactive)
HCT-15
  GI50: > 100 µM
SF-295
  GI50: > 100 µM (inactive)
K562
  GI50: > 100 µM (inactive)
TK-10
  GI50: > 100 µM (inactive)
NCI-H460
  GI50: > 100 µM (inactive)

## Cc1ccccc1CN1CC2=C(CCN(Cc3ccccc3)C2=O)N2CCN=C12
SK-MEL-2
  GI50: 4.81 µM (inactive)
M14
  GI50: 6.4 µM (inactive)
SK-MEL-5
  GI50: 2.63 µM (inactive)
KM12
  GI50: 46.2 µM (inactive)
UACC-62
  GI50: 11.1 µM (inactive)
OVCAR-4
  GI50: 3.27 µM (inactive)
HCC 2998
  GI50: 4.06 µM (inactive)
SW-620
  GI50: 4.5 µM (inactive)
OVCAR-8
  GI50: 4.76 µM (inactive)
HOP-62
  GI50: 9.16 µM (inactive)
SNB-75
  GI50: 6.08 µM (inactive)
SR
  GI50: 4.59 µM (inactive)
HCT-15
  GI50: 5.04 µM
SF-295
  GI50: 3.21 µM (inactive)
K562
  GI50: 2.96 µM (inactive)
TK-10
  GI50: 7.35 µM (inactive)
NCI-H460
  GI50: 4.24 µM (inactive)
ACHN
  GI50: 6.61 µM (inactive)

## Cc1ccc(-c2n[nH]c(=O)n2N2C(=O)c3ccccc3C2=O)cc1
SK-MEL-2
  GI50: > 100 µM (inactive)
Malme-3M
  GI50: > 100 µM (inactive)
M14
  GI50: > 100 µM (inactive)
SK-MEL-5
  GI50: > 100 µM (inactive)
KM12
  GI50: > 100 µM (inactive)
UACC-62
  GI50: > 100 µM (inactive)
HCC 2998
  GI50: > 100 µM (inactive)
SW-620
  GI50: > 100 µM (inactive)
OVCAR-8
  GI50: > 100 µM (inactive)
HOP-62
  GI50: > 100 µM (inactive)
SNB-75
  GI50: > 100 µM (inactive)
SR
  GI50: > 100 µM (inactive)
HCT-15
  GI50: > 100 µM
SF-295
  GI50: > 100 µM (inactive)
K562
  GI50: > 100 µM (inactive)
TK-10
  GI50: > 100 µM (inactive)
NCI-H460
  GI50: > 100 µM (inactive)
ACHN
  GI50: > 100 µM (inactive)

Source: ChEMBL document CHEMBL1201862, “PubChem BioAssay data set” (2004)
